The source made the active and inactive calls. The calls are words filed in the database; no cut-off is given here.
Legend:
Trypanosoma cruzi [1] = assay: Antitrypanosomal activity against Trypanosoma cruzi MHOM/Pe/2011/Arequipa(DTU V) amastigote form infected in BALB/c mouse assessed as reduction in parasite growth at 20 mg/kg, po administered for 5 days starting at 100 days post infection and measured up to 106 days post infection by ELISA assay; assay type: functional, organism-based; conditions: time 5.0 day
Trypanosoma cruzi [2] = assay: Inhibition of Trypanosoma cruzi MHOM/Pe/2011/Arequipa(DTU V) epimastigote form Fe-SOD at 25 uM by UV-VIS spectrophotometric method relative to control
Trypanosoma cruzi [3] = assay: Antitrypanosomal activity against Trypanosoma cruzi MHOM/Pe/2011/Arequipa(DTU V) amastigote form infected in BALB/c mouse assessed as reduction in parasitaemia at 20 mg/kg, po for 5 days starting at 9 days post infection and measured after 13 to 35 days post infection; assay type: functional, organism-based; conditions: time 5.0 day
Trypanosoma cruzi [4] = assay: Antitrypanosomal activity against Trypanosoma cruzi MHOM/Pe/2011/Arequipa(DTU V) amastigote form infected in BALB/c mouse assessed as reduction in parasitaemia at 20 mg/kg, po for 5 days starting at 9 days post infection and measured after 7 days post infection relative to control; assay type: functional; set-up: scale not given: the % may be the effect or the level left; conditions: time 5 day
Trypanosoma cruzi [5] = assay: Antitrypanosomal activity against Trypanosoma cruzi MHOM/Pe/2011/Arequipa(DTU V) amastigote form infected in BALB/c mouse assessed as reduction in spleen enlargement at 20 mg/kg, po administered for 5 days starting at 9 days post infection and measured after 145 days post infection; assay type: functional, organism-based; conditions: time 5.0 day
Trypanosoma cruzi [6] = assay: Antitrypanosomal activity against Trypanosoma cruzi MHOM/Pe/2011/Arequipa(DTU V) amastigote form infected in BALB/c mouse assessed as reduction in spleen enlargement at 20 mg/kg, po administered for 5 days starting at 100 days post infection and measured after 145 days post infection; assay type: functional, organism-based; conditions: time 5.0 day

## COC(=O)[C@]1(C)CCC[C@]2(C)C3=C(C=C[C@@H]12)C(=O)C(C(C)C)=CC3=O
Trypanosoma cruzi [1]
  Activity: Active
Trypanosoma cruzi [2]
  inhibition: 100%
Trypanosoma cruzi [3]
  Activity: Active
Trypanosoma cruzi [4]
  Activity: 65%
Trypanosoma cruzi [5]
  Activity: Active
Trypanosoma cruzi [6]
  Activity: Active
